How the values were obtained:
Homo sapiens [1] = organism: Homo sapiens; experiment: Selectivity ratio of IC50 for human CYP2C9 bound to yeast microsomal membrane to IC50 for human CYP1B1 bound to yeast microsomal membrane
[2] = Selectivity ratio of IC50 for human CYP3A4 expressed in HEK293 cells to IC50 for human CYP1A1 expressed in HEK293 cells
Homo sapiens [3] = organism: Homo sapiens; experiment: Selectivity ratio of IC50 for human CYP2C19 bound to yeast microsomal membrane to IC50 for human CYP1A1 bound to yeast microsomal membrane
Cytochrome P450 1A1 = target: T1, Cytochrome P450 1A1 (Homo sapiens, UniProt P04798); experiment: Inhibition of human CYP1A1 transfected in HEK293 cells assessed as protection against CYP1A1 mediated B[a]P toxicity at 20 uM by MTT assay; assay type: cell-based; conditions: hek293, 20 µM
T1 sequence (P04798 whole entry): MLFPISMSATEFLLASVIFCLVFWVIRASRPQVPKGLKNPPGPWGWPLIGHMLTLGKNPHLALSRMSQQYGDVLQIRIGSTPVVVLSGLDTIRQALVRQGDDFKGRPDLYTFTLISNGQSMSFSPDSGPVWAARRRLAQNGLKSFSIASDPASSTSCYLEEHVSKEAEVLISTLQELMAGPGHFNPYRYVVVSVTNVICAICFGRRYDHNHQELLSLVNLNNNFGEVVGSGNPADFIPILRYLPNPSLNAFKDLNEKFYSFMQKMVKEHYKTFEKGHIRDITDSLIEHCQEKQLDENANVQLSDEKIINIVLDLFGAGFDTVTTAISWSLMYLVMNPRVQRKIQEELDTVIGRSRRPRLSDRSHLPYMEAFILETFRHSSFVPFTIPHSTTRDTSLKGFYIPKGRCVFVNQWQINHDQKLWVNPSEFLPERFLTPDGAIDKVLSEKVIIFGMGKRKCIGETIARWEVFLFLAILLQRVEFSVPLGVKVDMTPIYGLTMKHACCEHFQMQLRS

[4] = Selectivity ratio of IC50 for human CYP2C19 expressed in HEK293 cells to IC50 for human CYP1B1 expressed in HEK293 cells
[5] = Selectivity ratio of IC50 for human CYP2D6 expressed in HEK293 cells to IC50 for human CYP1B1 expressed in HEK293 cells
Homo sapiens [6] = organism: Homo sapiens; experiment: Selectivity ratio of IC50 for human CYP2C19 bound to yeast microsomal membrane to IC50 for human CYP1A2 bound to yeast microsomal membrane
[7] = Selectivity ratio of IC50 for human CYP2C9 expressed in HEK293 cells to IC50 for human CYP1B1 expressed in HEK293 cells
Homo sapiens [8] = organism: Homo sapiens; experiment: Selectivity ratio of IC50 for human CYP2C9 bound to yeast microsomal membrane to IC50 for human CYP1A1 bound to yeast microsomal membrane
Homo sapiens [9] = organism: Homo sapiens; experiment: Selectivity ratio of IC50 for human CYP3A4 bound to yeast microsomal membrane to IC50 for human CYP1B1 bound to yeast microsomal membrane
Homo sapiens [10] = organism: Homo sapiens; experiment: Selectivity ratio of IC50 for human CYP2D6 bound to yeast microsomal membrane to IC50 for human CYP1A2 bound to yeast microsomal membrane
Homo sapiens [11] = organism: Homo sapiens; experiment: Selectivity ratio of IC50 for human CYP2D6 bound to yeast microsomal membrane to IC50 for human CYP1A1 bound to yeast microsomal membrane
[12] = Selectivity ratio of IC50 for human CYP2C9 expressed in HEK293 cells to IC50 for human CYP1A1 expressed in HEK293 cells
[13] = Selectivity ratio of IC50 for human CYP2D6 expressed in HEK293 cells to IC50 for human CYP1A1 expressed in HEK293 cells
[14] = Selectivity ratio of IC50 for human CYP2C9 expressed in HEK293 cells to IC50 for human CYP1A2 expressed in HEK293 cells
[15] = Selectivity ratio of IC50 for human CYP3A4 expressed in HEK293 cells to IC50 for human CYP1A2 expressed in HEK293 cells
[16] = Selectivity ratio of IC50 for human CYP2C19 expressed in HEK293 cells to IC50 for human CYP1A2 expressed in HEK293 cells
[17] = Selectivity ratio of IC50 for human CYP3A4 expressed in HEK293 cells to IC50 for human CYP1B1 expressed in HEK293 cells
[18] = Selectivity ratio of IC50 for human CYP2D6 expressed in HEK293 cells to IC50 for human CYP1A2 expressed in HEK293 cells
[19] = target: T2, Aryl hydrocarbon receptor (Homo sapiens, UniProt P35869); experiment: Antagonist activity at human AhR expressed in Saccharomyces cerevisiae W303-1A (ATCC 208352) transformed with an episomal plasmid containing a minimal CYC1 promoter, with a concatemer of five XRE enhancer sequences, linked to eGFP reporter gene and co-expressing ARNT assessed as inhibition of B[a]P agonist induced XRE-driven eGFP expression after 18 hrs by fluorescence assay; conditions: for inhibition (INH): human, 18 h
T2 sequence (P35869 whole entry): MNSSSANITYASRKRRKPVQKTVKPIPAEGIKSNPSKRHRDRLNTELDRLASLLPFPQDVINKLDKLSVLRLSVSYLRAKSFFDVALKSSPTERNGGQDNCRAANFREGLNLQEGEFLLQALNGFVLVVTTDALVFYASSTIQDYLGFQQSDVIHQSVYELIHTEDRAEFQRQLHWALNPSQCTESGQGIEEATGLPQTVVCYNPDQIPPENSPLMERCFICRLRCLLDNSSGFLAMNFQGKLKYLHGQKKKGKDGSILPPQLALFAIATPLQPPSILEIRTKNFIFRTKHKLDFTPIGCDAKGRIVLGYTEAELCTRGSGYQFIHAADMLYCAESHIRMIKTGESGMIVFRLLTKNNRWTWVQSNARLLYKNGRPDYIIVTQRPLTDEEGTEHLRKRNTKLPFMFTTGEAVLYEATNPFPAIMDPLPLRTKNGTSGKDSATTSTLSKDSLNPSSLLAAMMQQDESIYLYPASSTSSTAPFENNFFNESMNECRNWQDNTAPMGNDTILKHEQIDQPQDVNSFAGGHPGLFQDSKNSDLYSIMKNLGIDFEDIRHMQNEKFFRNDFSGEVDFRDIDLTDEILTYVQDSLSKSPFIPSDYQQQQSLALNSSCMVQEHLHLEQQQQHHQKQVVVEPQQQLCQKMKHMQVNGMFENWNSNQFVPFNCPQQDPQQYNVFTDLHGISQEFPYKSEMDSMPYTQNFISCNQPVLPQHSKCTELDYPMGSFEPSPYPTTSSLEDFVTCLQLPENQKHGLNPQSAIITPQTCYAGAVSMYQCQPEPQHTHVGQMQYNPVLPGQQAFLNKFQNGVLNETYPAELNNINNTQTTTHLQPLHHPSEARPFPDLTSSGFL

Homo sapiens [20] = organism: Homo sapiens; experiment: Selectivity ratio of IC50 for human CYP2D6 bound to yeast microsomal membrane to IC50 for human CYP1B1 bound to yeast microsomal membrane
[21] = Selectivity ratio of IC50 for human CYP2C19 expressed in HEK293 cells to IC50 for human CYP1A1 expressed in HEK293 cells
Homo sapiens [22] = organism: Homo sapiens; experiment: Selectivity ratio of IC50 for human CYP3A4 bound to yeast microsomal membrane to IC50 for human CYP1A1 bound to yeast microsomal membrane

| IC50 [19] | Compound | Ratio IC50 (Homo sapiens [1]) | Ratio IC50 [2] | Ratio IC50 (Homo sapiens [3]) | inhibition (INH) (Cytochrome P450 1A1) | Ratio IC50 [4] | Ratio IC50 [5] | Ratio IC50 (Homo sapiens [6]) | Ratio IC50 [7] | Ratio IC50 (Homo sapiens [8]) | Ratio IC50 (Homo sapiens [9]) | Ratio IC50 (Homo sapiens [10]) | Ratio IC50 (Homo sapiens [11]) | Ratio IC50 [12] | Ratio IC50 [13] | Ratio IC50 [14] | Ratio IC50 [15] | Ratio IC50 [16] | Ratio IC50 [17] | Ratio IC50 [18] | other results |
| --- | --- | --- | --- | --- | --- | --- | --- | --- | --- | --- | --- | --- | --- | --- | --- | --- | --- | --- | --- | --- | --- |
| 7.6 µM | O=C(/C=C/c1ccccc1Cl)c1ccc[nH]1 | > 20 | >20 | > 20 | Not Active | >20 | >20 | > 20 | >20 | > 20 | > 20 | > 20 | > 20 | >20 | >20 | >20 | >20 | >20 | >20 | >20 | inhibition (INH) [19]: Dose-dependent effect; Ratio IC50 (Homo sapiens [20]): > 20; Ratio IC50 [21]: >20; Ratio IC50 (Homo sapiens [22]): > 20 |
| – | O=C(/C=C/c1ccc(OC(F)(F)F)cc1)c1ccc[nH]1 | – | – | – | Not Active | – | – | – | – | – | – | – | – | – | – | – | – | – | – | – | – |
| 1.5 µM | COc1ccccc1/C=C/C(=O)c1ccc[nH]1 | > 20 | >20 | > 20 | – | >20 | >20 | > 20 | >20 | > 20 | > 20 | > 20 | > 20 | >20 | >20 | >20 | >20 | >20 | >20 | >20 | inhibition (INH) [19]: Dose-dependent effect; Ratio IC50 (Homo sapiens [20]): > 20; Ratio IC50 [21]: >20; Ratio IC50 (Homo sapiens [22]): > 20 |
